The subject of experiment [1] is Escherichia coli expressing NDM-1 (CLB30016). Nature of the experiment: Antibiotic potentiation activity: synergistic concentration (MITC95) with imipenem, growth by OD600. Format: cell-based. The following applies: E. coli CLB30016 (NDM-1), 95% inhibition of growth. In outline:
(§1)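 Colonies from overnight agar plates (35 °C) were suspended in saline and diluted 1:100 into 1.1× CAMHB. Inhibitor (final 200 μM to 0.195 μM) was combined with imipenem at 1 or 4 μg/ml, incubated 22–24 h at 35 °C, and absorbance read; MITC95 is the lowest inhibitor concentration giving 95% growth inhibition.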

For experiment [2], the system named is Klebsiella pneumoniae expressing VIM-1 (IHMA599644). The description is as above. The class given is cell-based. As to conditions: K. pneumoniae IHMA599644 (VIM-1), 95% inhibition of growth. The method, boiled down: as §1
Experiment [3] concerns Serratia marcescens expressing IMP-1 (CL5741). The description is as above. The class given is cell-based. The following applies: S. marcescens CL5741 (IMP-1), 95% inhibition of growth. The method, boiled down:
as §1

A further experiment has as its target IMP-1 (Serratia marcescens, UniProt P52699). The experiment in a line: Enzyme activity: determination of IC50, fluorescence assay with CCF2-FA substrate. Format: biochemical. As to conditions: IMP-1 enzyme 2 pM, CCF2-FA 1.25 μM, 2 hours at 25° C.; read-out: IMP1 IC50. In outline: (§2)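 Enzyme at 1 pM (NDM-1), 2 pM (IMP-1) or 30 pM (VIM-1) was incubated with inhibitor (20 μM to 0.00063 μM) and 1.25 μM CCF2-FA in 100 mM KH2PO4 pH 7, 0.005% Tween-20, 10 μM ZnSO4 for 2 hours at 25° C. Fluorescence was read at ex 405/em 460 nm; IC50 from 4-parameter fit.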

The target of a further experiment is NDM-1 (Klebsiella pneumoniae, UniProt C7C422). The description is as above. The class given is biochemical. The following applies: NDM-1 enzyme 1 pM, CCF2-FA 1.25 μM, 2 hours at 25° C.; read-out: NDM1 IC50. The method, boiled down:
as §2

The next experiment addresses VIM-1 (Pseudomonas aeruginosa, UniProt A0A0F7KYQ8). The experiment is described as above. Format: biochemical. As to conditions: VIM-1 enzyme 30 pM, CCF2-FA 1.25 μM, 2 hours at 25° C.; read-out: VIM1 IC50. In outline: as §2

The structures appear in SMILES notation.

Sequence of NDM-1 (C7C422 29-270, looked up, species assumed): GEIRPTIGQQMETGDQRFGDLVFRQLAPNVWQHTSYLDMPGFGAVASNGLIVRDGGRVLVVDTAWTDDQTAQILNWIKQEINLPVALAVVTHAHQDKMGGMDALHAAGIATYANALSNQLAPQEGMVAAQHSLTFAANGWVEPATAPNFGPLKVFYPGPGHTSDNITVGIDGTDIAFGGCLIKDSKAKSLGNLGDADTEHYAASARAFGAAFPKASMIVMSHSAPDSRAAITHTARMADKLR
Sequence of IMP-1 (P52699 19-246, looked up, species assumed): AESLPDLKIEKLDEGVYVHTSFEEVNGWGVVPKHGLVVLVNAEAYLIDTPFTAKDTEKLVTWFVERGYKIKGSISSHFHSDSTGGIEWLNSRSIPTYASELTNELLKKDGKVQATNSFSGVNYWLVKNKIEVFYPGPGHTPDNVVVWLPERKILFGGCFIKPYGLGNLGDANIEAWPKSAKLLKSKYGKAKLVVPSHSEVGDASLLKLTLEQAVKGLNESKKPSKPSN

On to `CCC[C@H](C(=O)O)[C@H](Cc1cccc(-c2cccc(CN)c2)c1)c1nn[nH]n1` [Example 359, (2S)-2-[(1S)-2-[3′-(aminomethyl)biphen-yl-3-yl]-1-(2H-tetrazol-5-yl)ethyl]pentanoic acid], for which, in experiment [1], the “NDM1 EC30016 MITC95” value is 9.4 µM. For the same compound, the “VIM1 KP599644 MITC95” value in experiment [2] is 6.2 µM. In experiment [3], the “IMP1 SM5741 MITC95” value was 12.5 µM. Moreover, the half-inhibitory concentration (IC50) (commonly the midpoint of a concentration-inhibition curve) was 750 nM at IMP-1, 60 nM on NDM-1 and 2.5 nM at VIM-1.
Turning to `CCC[C@H](C(=O)O)[C@H](Cc1cccc(N2CCCC(O)C2)c1)c1nn[nH]n1` (stereo partly drawn) [Example 360, (2S)-2-[(1S)-2-[3-(3-hydroxypiperidin-1-yl)phenyl]-1-(2H-tetrazol-5-yl)ethyl]pentanoic acid], the “NDM1 EC30016 MITC95” value in experiment [1] is 25 µM. The “VIM1 KP599644 MITC95” value in experiment [2] is 150 µM. Moreover, the “IMP1 SM5741 MITC95” value in experiment [3] turned out to be 18.8 µM. Moreover, the IC50 at IMP-1 is 510 nM; on NDM-1, 47 nM; at VIM-1 it was 13 nM.
With `CCC[C@H](C(=O)O)[C@H](Cc1cccc(N(C)CCN(C)C)c1)c1nn[nH]n1` [Example 361, (2S)-2-[(1S)-2-(3-{[2-(dimethylamino)ethyl] (methyl)amino}phenyl)-1-(2H-tetrazol-5-yl)ethyl]pentanoic acid], in experiment [1], the “NDM1 EC30016 MITC95” value is 38 µM. In addition, in experiment [2], the “VIM1 KP599644 MITC95” value worked out at 25 µM. Moreover, the “IMP1 SM5741 MITC95” value in experiment [3] was 150 µM. Further, the IC50 at IMP-1 is 8700 nM; on NDM-1, 390 nM; at VIM-1 it was 29 nM.
As for `CCC[C@H](C(=O)O)[C@H](Cc1cccc(N2CCN(C)CC2)c1)c1nn[nH]n1` [Example 362, (2S)-2-[(1S)-2-[3-(4-methylpiperazin-1-yl)phenyl]-1-(2H-tetrazol-5-yl)ethyl]pentanoic acid], in experiment [1], the “NDM1 EC30016 MITC95” value is 25 µM. Also, the “VIM1 KP599644 MITC95” value in experiment [2] was found to be 18.8 µM. Also, the “IMP1 SM5741 MITC95” value in experiment [3] came out at 150 µM. For the same compound, the IC50 on IMP-1 worked out at 11000 nM; at NDM-1, 640 nM; at VIM-1 it was 10 nM.
Consider `CCC[C@H](C(=O)O)[C@H](Cc1cccc(N2CCN(C(C)=O)CC2)c1)c1nn[nH]n1` [Example 363, (2S)-2-[(1S)-2-[3-(4-acetylpiperazin-1-yl)phenyl]-1-(2H-tetrazol-5-yl)ethyl]pentanoic acid], for which the “NDM1 EC30016 MITC95” value in experiment [1] stood at 100 µM. Also, the “VIM1 KP599644 MITC95” value in experiment [2] is 100 µM. The “IMP1 SM5741 MITC95” value in experiment [3] is 25 µM. The half-maximal inhibitory concentration (IC50) was 810 nM at IMP-1, 150 nM on NDM-1 and 20 nM on VIM-1.
Take `CCC[C@H](C(=O)O)[C@H](Cc1cccc(N2CC[C@@H](N)C2)c1)c1nn[nH]n1` [Example 364, (2S)-2-[(1S)-2-{3-[(3R)-3-aminopyrrolidin-1-yl]phenyl}-1-(2H-tetrazol-5-yl)ethyl]pentanoic acid]: the “NDM1 EC30016 MITC95” value in experiment [1] was determined as 9.4 µM. Moreover, the “VIM1 KP599644 MITC95” value in experiment [2] amounted to 12.5 µM. Besides, the “IMP1 SM5741 MITC95” value in experiment [3] worked out at 38 µM. Moreover, the IC50 on IMP-1 was determined as 1600 nM; at NDM-1 it was 110 nM; on VIM-1, 2.4 nM.
For the compound `CCC[C@H](C(=O)O)[C@H](Cc1cccc(N2CCOCC2)c1)c1nn[nH]n1` [Example 365, (2S)-2-[(1S)-2-(3-morpholin-4-ylphenyl)-1-(2H-tetrazol-5-yl)ethyl]pentanoic acid], the “NDM1 EC30016 MITC95” value in experiment [1] turned out to be 38 µM. For the same compound, the “VIM1 KP599644 MITC95” value in experiment [2] is 50 µM. For the same compound, in experiment [3], the “IMP1 SM5741 MITC95” value came to 38 µM. The figures for the IC50 at IMP-1, at NDM-1 and at VIM-1 were 1500 nM, 82 nM and 20 nM, respectively.
As to `CCC[C@H](C(=O)O)[C@H](Cc1cccc(N2CCC[C@H](N)C2)c1)c1nn[nH]n1` [Example 366, (2S)-2-[(1S)-2-{3-[(3S)-3-aminopiperidin-1-yl]phenyl}-1-(2H-tetrazol-5-yl)ethyl]pentanoic acid], the “NDM1 EC30016 MITC95” value in experiment [1] was 50 µM. The “VIM1 KP599644 MITC95” value in experiment [2] turned out to be 25 µM. The “IMP1 SM5741 MITC95” value in experiment [3] was 150 µM. For the same compound, the half-maximal inhibitory concentration (IC50) on IMP-1 turned out to be 8600 nM; at NDM-1 it was 870 nM; on VIM-1, 13 nM.
As to `CCC[C@H](C(=O)O)[C@H](Cc1cccc(N2CCNC(=O)C2)c1)c1nn[nH]n1` [Example 367, (2S)-2-[(1S)-2-[3-(3-oxopiperazin-1-yl)phenyl]-1-(2H-tetrazol-5-yl)ethyl]pentanoic acid], the “NDM1 EC30016 MITC95” value in experiment [1] was >200 µM. The “VIM1 KP599644 MITC95” value in experiment [2] is >200 µM. Also, the “IMP1 SM5741 MITC95” value in experiment [3] is >200 µM. In addition, the IC50 on IMP-1 is > 20000 nM; at NDM-1, 1400 nM; on VIM-1, 260 nM.
For `CCC[C@H](C(=O)O)[C@H](Cc1cccc(N2CCCCC2)c1)c1nn[nH]n1` [Example 368, (2S)-2-[(1S)-2-(3-piperidin-1-ylphenyl)-1-(2H-tetrazol-5-yl)ethyl]pentanoic acid], the “NDM1 EC30016 MITC95” value in experiment [1] was 25 µM. Moreover, the “VIM1 KP599644 MITC95” value in experiment [2] was 50 µM. For the same compound, in experiment [3], the “IMP1 SM5741 MITC95” value was 37.5 µM. Besides, the values for the half-inhibitory concentration (IC50) at IMP-1, at NDM-1 and on VIM-1 were 740 nM, 46 nM and 9.7 nM, respectively.
For the compound `CCC[C@H](C(=O)O)[C@H](Cc1cccc(N2CC[C@H](N)C2)c1)c1nn[nH]n1` [Example 369, (2S)-2-[(1S)-2-{3-[(3S)-3-aminopyrrolidin-1-yl]phenyl}-1-(2H-tetrazol-5-yl)ethyl]pentanoic acid], in experiment [1], the “NDM1 EC30016 MITC95” value worked out at 12.5 µM. In addition, the “VIM1 KP599644 MITC95” value in experiment [2] was 12.5 µM. In addition, in experiment [3], the “IMP1 SM5741 MITC95” value was 50 µM. Further, the values for the 50% inhibitory concentration (IC50) on IMP-1, on NDM-1 and on VIM-1 were 2300 nM, 150 nM and 3.2 nM, respectively.
On to `CCC[C@H](C(=O)O)[C@H](Cc1cccc(N2CCC[C@@H](N)C2)c1)c1nn[nH]n1` [Example 370, (2S)-2-[(1S)-2-{3-[(3R)-3-aminopiperidin-1-yl]phenyl}-1-(2H-tetrazol-5-yl)ethyl]pentanoic acid], for which the “NDM1 EC30016 MITC95” value in experiment [1] came to 44 µM. Moreover, in experiment [2], the “VIM1 KP599644 MITC95” value was 41 µM. Besides, the “IMP1 SM5741 MITC95” value in experiment [3] is 175 µM. In addition, the IC50 came out at 9000 nM on IMP-1, 870 nM on NDM-1 and 6.3 nM on VIM-1.
Take `CC(C)C[C@H](C(=O)O)[C@H](Cc1ccc(Oc2ccccc2C2CCCN2)nc1)c1nn[nH]n1` (stereo partly drawn) [Example 374, (2S)-4-methyl-2-[(1S)-2-[6-(2-pyrrolidin-2-ylphenoxy)pyridin-3-yl]-1-(2H-tetrazol-5-yl)ethyl]pentanoic acid]: the “NDM1 EC30016 MITC95” value in experiment [1] was 9.4 µM. In addition, in experiment [2], the “VIM1 KP599644 MITC95” value was determined as 62 µM. The “IMP1 SM5741 MITC95” value in experiment [3] was determined as 9.4 µM. For the same compound, the half-inhibitory concentration (IC50) at IMP-1 was 90 nM; on NDM-1 it was 12 nM; on VIM-1 it was 3 nM.
`CC(C)C[C@H](C(=O)O)[C@H](Cc1ccc(Oc2ccccc2C2CCCN2)nc1)c1nn[nH]n1` (stereo partly drawn) [Example 376, (2S)-4-methyl-2-[(1S)-2-[6-(2-pyrrolidin-2-ylphenoxy)pyridin-3-yl]-1-(2H-tetrazol-5-yl)ethyl]pentanoic acid]: the “NDM1 EC30016 MITC95” value in experiment [1] is 25 µM. In experiment [2], the “VIM1 KP599644 MITC95” value is 50 µM. Also, in experiment [3], the “IMP1 SM5741 MITC95” value turned out to be 25 µM. The concentration for half-maximal inhibition (IC50) is 660 nM on IMP-1, 77 nM at NDM-1 and 4.6 nM at VIM-1.
Turning to `CC(C)C[C@H](C(=O)O)[C@H](Cc1ccc(Oc2ccnc(N3CCNCC3)c2)nc1)c1nn[nH]n1` [Example 379, (2S)-4-methyl-2-[(1S)-2-{6-[(2-piperazin-1-ylpyridin-4-yl)oxy]pyridin-3-yl}-1-(2H-tetrazol-5-yl)ethyl]pentanoic acid], the “NDM1 EC30016 MITC95” value in experiment [1] came to 9.4 µM. Besides, the “VIM1 KP599644 MITC95” value in experiment [2] stood at 100 µM. Besides, in experiment [3], the “IMP1 SM5741 MITC95” value stood at 16 µM. Also, the 50% inhibitory concentration (IC50) at IMP-1 was determined as 370 nM; at NDM-1, 32 nM; at VIM-1 it was 7.1 nM.
In the case of `CC(C)C[C@H](C(=O)O)[C@H](Cc1ccc(Oc2ccc(C(C)N)nc2)nc1)c1nn[nH]n1` (stereo partly drawn) [Example 380, (2S)-2-[(1S)-2-(6-{[6-(1-aminoethyl)pyridin-3-yl]oxy}pyridin-3-yl)-1-(2H-tetrazol-5-yl)ethyl]-4-methylpentanoic acid], in experiment [1], the “NDM1 EC30016 MITC95” value worked out at 4.7 µM. In addition, the “VIM1 KP599644 MITC95” value in experiment [2] was found to be 50 µM. In experiment [3], the “IMP1 SM5741 MITC95” value worked out at 4.7 µM. Besides, the IC50 was determined as 64 nM on IMP-1, 12 nM on NDM-1 and 2.4 nM at VIM-1.
For the compound `CC(C)C[C@H](C(=O)O)[C@H](Cc1ccc(Oc2ccccc2)nc1)c1nn[nH]n1` [Example 381, (2S)-4-methyl-2-[(1S)-2-(6-phenoxypyridin-3-yl)-1-(2H-tetrazol-5-yl)ethyl]pentanoic acid], the “NDM1 EC30016 MITC95” value in experiment [1] came to 9.4 µM. Also, the “VIM1 KP599644 MITC95” value in experiment [2] came out at 75 µM. For the same compound, in experiment [3], the “IMP1 SM5741 MITC95” value was 4.7 µM. The IC50 at IMP-1 was 86 nM; at NDM-1, 24 nM; at VIM-1, 4.1 nM.

The record behind these values is patent publication US9839642B2, “Beta-tetrazolyl-propionic acids as metallo-beta-lactamase inhibitors” (priority 2014, dated 2017).
